US11992297B2, “Monitoring method of heart rate for toxicity test using high-speed digital holography” (KOREA RESEARCH INSTITUTE OF STANDARDS AND SCIENCE, priority 2020, dated 2024)
Like-named read-outs stand apart in the source and are kept apart here.

Assays:
[1] = system: water flea; details: for change of heart rate (final RHR) relative to the original heart rate (OHR) / decrease of heart rate (final RHR) relative to the original heart rate (OHR): FIG. 7 (C); for decrease of heart rate (final RHR) relative to the original heart rate (OHR): normalized for initial RHR; for relaxation heart rate (RHR) 0 hr / relaxation heart rate (RHR) 24 hr: average ± SD; for RHR normalization relative to 0 hr: 24 hr relative to 0 hr; for heart rate decrease after 24 hours (normalized average RHR): FIG. 8 (B),(C)
Description: In the individual response evaluation apparatus, an extra-axial digital holography method was used to take a hologram of the water flea with a CCD camera.
The heart rate of the water flea was analyzed by the reconstructed time-resolved phase distributions, from the heart rate signal obtained by the method.
A Fourier spectrum method was used for evaluating periodic characteristics in heart rate analysis. In (C) of FIG. 5, a one-dimensional Fourier spectrum method was used for each pixel of 1000 frame sets to calculate a two-dimensional frequency distribution of the water flea.
2 hours after the observation, 19 mL of hydrogen peroxide having concentrations of 0.00 mM, 0.03 mM, and 0.06 mM, respectively was each mixed for each experiment to perform the experiment repeatedly so that the water flea is exposed to the hydrogen peroxide. At this time, in a negative control group of 0.00 mM treatment, 10 mL of an M4 medium was further mixed for unifying volume.
Upon observation, the heart rate analysis was performed by dividing the section into those before and after exposure to hydrogen peroxide.
In order to express the heart rate trend of (B) of FIG. 7, in (A) of FIG. 7, an original heart rate (OHR) was flattened every 30 minutes by a moving average method.

[2] = system: water flea; details: 0.06 mM-treated test group versus 0.03 mM-treated group; FIG. 8 (d)
[3] = 0.03 mM hydrogen peroxide, Group (N=3)
[4] = 0.03 mM hydrogen peroxide, specimen #4
[5] = 0.03 mM hydrogen peroxide, specimen #5
[6] = 0.03 mM hydrogen peroxide, specimen #6
[7] = 0.06 mM hydrogen peroxide, Group (N=3)
[8] = 0.06 mM hydrogen peroxide, specimen #7
[9] = 0.06 mM hydrogen peroxide, specimen #8
[10] = 0.06 mM hydrogen peroxide, specimen #9

OO [hydrogen peroxide]
change of heart rate (final RHR) relative to the original heart rate (OHR) ([1]; 0.03 mM hydrogen peroxide): −13 BPM | decrease of heart rate (final RHR) relative to the original heart rate (OHR) ([1]; 0.03 mM hydrogen peroxide): 3.3% | relaxation heart rate (RHR) 0 hr [1, 3]: 366.81 ± 20.43 BPM | RHR normalization relative to 0 hr [1, 3]: 92.84 ± 5.60% | relaxation heart rate (RHR) 24 hr [1, 3]: 340.33 ± 21.98 BPM | relaxation heart rate (RHR) 0 hr [1, 4]: 363.22 ± 12.11 BPM | RHR normalization relative to 0 hr [1, 4]: 90.42 ± 4.74% | relaxation heart rate (RHR) 24 hr [1, 4]: 328.43 ± 18.01 BPM | relaxation heart rate (RHR) 0 hr [1, 5]: 350.78 ± 20.23 BPM | RHR normalization relative to 0 hr [1, 5]: 96.72 ± 1.78% | relaxation heart rate (RHR) 24 hr [1, 5]: 339.28 ± 6.54 BPM | relaxation heart rate (RHR) 0 hr [1, 6]: 486.43 ± 6.63 BPM | RHR normalization relative to 0 hr [1, 6]: 91.42 ± 6.94% | relaxation heart rate (RHR) 24 hr [1, 6]: 353.28 ± 27.98 BPM | heart rate decrease after 24 hours (normalized average RHR) ([1]; 0.03 mM-treated test group): 7.16% | change of heart rate (final RHR) relative to the original heart rate (OHR) ([1]; 0.06 mM hydrogen peroxide): −109 BPM | decrease of heart rate (final RHR) relative to the original heart rate (OHR) ([1]; 0.06 mM hydrogen peroxide): 22.7% | relaxation heart rate (RHR) 0 hr [1, 7]: 383.81 ± 12.99 BPM | RHR normalization relative to 0 hr [1, 7]: 73.96 ± 5.61% | relaxation heart rate (RHR) 24 hr [1, 7]: 279.05 ± 12.71 BPM | relaxation heart rate (RHR) 0 hr [1, 8]: 370.07 ± 25.38 BPM | RHR normalization relative to 0 hr [1, 8]: 74.26 ± 4.33% | relaxation heart rate (RHR) 24 hr [1, 8]: 274.82 ± 16.01 BPM | relaxation heart rate (RHR) 0 hr [1, 9]: 378.43 ± 15.41 BPM | RHR normalization relative to 0 hr [1, 9]: 79.13 ± 3.88% | relaxation heart rate (RHR) 24 hr [1, 9]: 299.47 ± 14.70 BPM | relaxation heart rate (RHR) 0 hr [1, 10]: 383.90 ± 13.02 BPM | RHR normalization relative to 0 hr [1, 10]: 68.47 ± 1.93% | relaxation heart rate (RHR) 24 hr [1, 10]: 262.87 ± 7.41 BPM | heart rate decrease after 24 hours (normalized average RHR) ([1]; 0.06 mM-treated test group): 25.97% | reactive oxygen species (ROS) level, times higher than the 0.03 mM-treated group [2]: 7.8 times
